Measured values taken from patent US20210315810A1, “COMPOSITION CONTAINING A MUCOLYTIC AGENT FOR THE TREATMENT OF MUCUS HYPERSECRETION AND A DEVICE FOR THE DOSING THEREOF” (SOFAR S.P.A., priority 2018, published 2021).

Assay: Viscosity of cystic fibrosis mucus before and after incubation with Compositions 5-12 (Experimental Part II)
Set-up: species or system human
Details: mucus from patients, in vitro

CC(=O)N[C@@H](CS)C(=O)O [N-acetylcysteine, 2R-acetamido-3-sulfanylpropanoic acid]
Effect on viscosity of bronchial mucus (in words): effective at reducing the viscosity of bronchial mucus
